Test results reported in patent US6765085B2, “Receptor kinase, BIN1” (The Salk Institute for Biological Studies, priority 1997, dated 2004).
pIC50: −log10 of the molar value. Like-named read-outs stand apart in the source and are kept apart here.

Experiments:
plants = conditions: cited from earlier work
BIN1-GFP [1] = molecular target: T1, BIN1-GFP (Arabidopsis thaliana, UniProt O22476); type: binding; set-up: expressed in transfected cells; host or cells: transgenic Arabidopsis plants (microsomal fractions, or anti-GFP immunoprecipitate from extracts)
[2] = molecular target: T2, BIN1-116, Q583-stop (70-aa island) (Arabidopsis thaliana, UniProt O22476); type: binding; conditions: BIN1-116 mutant, compared with wild type
T2 construct: microsomal fractions of wild type (WT), det2, BIN1-6, BIN1-116, BIN1-104, and BIN1-102 mutant plants; from tissue; host or cells: microsomal fractions of BIN1-116 mutant Arabidopsis plants
T2 sequence (O22476 24-582 limits assumed): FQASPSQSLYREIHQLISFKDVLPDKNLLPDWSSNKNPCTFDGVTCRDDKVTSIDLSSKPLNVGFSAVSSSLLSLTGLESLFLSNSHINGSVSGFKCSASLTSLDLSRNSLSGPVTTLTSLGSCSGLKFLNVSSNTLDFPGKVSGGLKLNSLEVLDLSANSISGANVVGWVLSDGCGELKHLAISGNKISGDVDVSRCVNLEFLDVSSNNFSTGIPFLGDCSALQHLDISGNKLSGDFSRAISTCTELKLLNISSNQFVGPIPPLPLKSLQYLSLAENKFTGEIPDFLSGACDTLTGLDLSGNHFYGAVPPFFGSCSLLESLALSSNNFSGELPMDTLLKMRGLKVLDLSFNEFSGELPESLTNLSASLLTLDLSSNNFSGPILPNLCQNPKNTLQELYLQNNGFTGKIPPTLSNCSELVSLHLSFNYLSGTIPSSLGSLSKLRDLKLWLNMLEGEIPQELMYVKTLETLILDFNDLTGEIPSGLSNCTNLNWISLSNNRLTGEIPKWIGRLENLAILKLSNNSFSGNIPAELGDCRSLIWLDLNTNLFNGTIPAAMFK
Excerpt: (§1) Mutations in large numbers of BIN1 alleles implicate the functional importance of the cytoplasmic kinase domain and the 70-aa island of BIN1's extracellular domain.
(§2) Tetrahedron Lett. 39, 7525-7528 (1998). […] Science 288, 2360-3 (2000).

[3] = molecular target: T3, BIN1-6, G644-D (70-aa island) (Arabidopsis thaliana, UniProt O22476, G644D); type: binding; conditions: BIN1-6 mutant, compared with wild type
T3 construct: microsomal fractions of wild type (WT), det2, BIN1-6, BIN1-116, BIN1-104, and BIN1-102 mutant plants; from tissue; host or cells: microsomal fractions of BIN1-6 mutant Arabidopsis plants
Excerpt: as §1, §2

BIN1 [4] = assay: BL induced BIN1 phosphorylation in seedlings (mobility shift on SDS-PAGE, immunoblot); type: in vivo, Arabidopsis; conditions: BIN1-6 and BIN1117 mutant seedlings, 1 μM BL for 1 hour
Protocol: (§3) Proteins were analyzed by 4% SDS-PAGE, blotted, and probed with anti-BIN1N antibody. b.
(§4) Samples were analyzed by SDS-PAGE using 4% gels and western blotting as described above. […] For phosphatase treatment, SDS was removed from protein samples using the SDS-OUT kit (Pierce), and the proteins were then treated with alkaline phosphatase (Boehringer Mannheim) and protein phosphatase I (PPI, New England Biolab) under conditions recommended by the manufacturer and as described.

BIN1-GFP [5] = molecular target: T1, BIN1-GFP; conditions: membrane fractions of BIN1-GFP transgenic plants
BIN1 [6] = molecular target: T4, BIN1 (Arabidopsis thaliana, UniProt O22476); conditions: membrane fractions of wild-type plants
T4 sequence (O22476 24-1196): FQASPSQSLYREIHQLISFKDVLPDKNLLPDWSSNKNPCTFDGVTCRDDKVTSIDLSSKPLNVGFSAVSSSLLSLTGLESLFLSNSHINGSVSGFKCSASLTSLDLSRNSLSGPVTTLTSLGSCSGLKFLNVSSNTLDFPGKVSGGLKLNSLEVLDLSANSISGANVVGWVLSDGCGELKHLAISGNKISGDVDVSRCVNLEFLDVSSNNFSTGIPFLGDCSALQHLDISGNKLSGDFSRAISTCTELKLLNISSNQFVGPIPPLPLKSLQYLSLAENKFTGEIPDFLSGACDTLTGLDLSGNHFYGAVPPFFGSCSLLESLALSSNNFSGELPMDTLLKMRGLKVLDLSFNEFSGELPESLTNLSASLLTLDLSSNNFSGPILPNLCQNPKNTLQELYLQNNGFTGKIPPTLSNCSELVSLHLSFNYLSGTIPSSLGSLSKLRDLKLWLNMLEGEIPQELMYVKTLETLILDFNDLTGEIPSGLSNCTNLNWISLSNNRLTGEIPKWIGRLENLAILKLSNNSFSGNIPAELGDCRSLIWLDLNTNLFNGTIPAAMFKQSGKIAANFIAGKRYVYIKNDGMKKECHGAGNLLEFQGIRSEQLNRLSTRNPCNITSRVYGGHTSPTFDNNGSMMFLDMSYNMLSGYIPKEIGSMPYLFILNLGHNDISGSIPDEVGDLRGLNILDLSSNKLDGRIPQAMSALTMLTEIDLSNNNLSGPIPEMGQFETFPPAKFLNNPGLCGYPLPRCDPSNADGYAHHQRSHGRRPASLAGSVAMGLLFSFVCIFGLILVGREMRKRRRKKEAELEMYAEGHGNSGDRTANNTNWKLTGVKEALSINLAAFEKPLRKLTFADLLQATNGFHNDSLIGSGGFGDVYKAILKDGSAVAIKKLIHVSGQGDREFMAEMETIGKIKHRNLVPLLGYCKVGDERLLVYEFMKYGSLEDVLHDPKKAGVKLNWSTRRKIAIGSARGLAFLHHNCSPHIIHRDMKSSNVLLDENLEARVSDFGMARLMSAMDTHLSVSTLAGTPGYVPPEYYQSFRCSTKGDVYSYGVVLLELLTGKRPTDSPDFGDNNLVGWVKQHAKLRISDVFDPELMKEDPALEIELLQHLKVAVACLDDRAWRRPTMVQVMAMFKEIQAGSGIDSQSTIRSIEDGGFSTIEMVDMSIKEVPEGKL

BIN1 [7] = molecular target: T4, BIN1; assay: BL induced BIN1 phosphorylation in seedlings (mobility shift on SDS-PAGE, immunoblot); type: in vivo; set-up: from tissue; host or cells: wild-type Arabidopsis seedlings (microsomal fractions in A2; whole seedlings in A10); conditions: det2 BL biosynthetic mutant seedlings, 1 μM BL for 1 hour
Protocol: as §3, §4

BIN1 [8] = molecular target: T4, BIN1; assay: Binding kinetic studies of specific BL binding; set-up: from tissue; host or cells: wild-type Arabidopsis seedlings (microsomal fractions in A2; whole seedlings in A10)
Excerpt: as §2

T1 sequence (O22476 with tags, fused parts or gaps): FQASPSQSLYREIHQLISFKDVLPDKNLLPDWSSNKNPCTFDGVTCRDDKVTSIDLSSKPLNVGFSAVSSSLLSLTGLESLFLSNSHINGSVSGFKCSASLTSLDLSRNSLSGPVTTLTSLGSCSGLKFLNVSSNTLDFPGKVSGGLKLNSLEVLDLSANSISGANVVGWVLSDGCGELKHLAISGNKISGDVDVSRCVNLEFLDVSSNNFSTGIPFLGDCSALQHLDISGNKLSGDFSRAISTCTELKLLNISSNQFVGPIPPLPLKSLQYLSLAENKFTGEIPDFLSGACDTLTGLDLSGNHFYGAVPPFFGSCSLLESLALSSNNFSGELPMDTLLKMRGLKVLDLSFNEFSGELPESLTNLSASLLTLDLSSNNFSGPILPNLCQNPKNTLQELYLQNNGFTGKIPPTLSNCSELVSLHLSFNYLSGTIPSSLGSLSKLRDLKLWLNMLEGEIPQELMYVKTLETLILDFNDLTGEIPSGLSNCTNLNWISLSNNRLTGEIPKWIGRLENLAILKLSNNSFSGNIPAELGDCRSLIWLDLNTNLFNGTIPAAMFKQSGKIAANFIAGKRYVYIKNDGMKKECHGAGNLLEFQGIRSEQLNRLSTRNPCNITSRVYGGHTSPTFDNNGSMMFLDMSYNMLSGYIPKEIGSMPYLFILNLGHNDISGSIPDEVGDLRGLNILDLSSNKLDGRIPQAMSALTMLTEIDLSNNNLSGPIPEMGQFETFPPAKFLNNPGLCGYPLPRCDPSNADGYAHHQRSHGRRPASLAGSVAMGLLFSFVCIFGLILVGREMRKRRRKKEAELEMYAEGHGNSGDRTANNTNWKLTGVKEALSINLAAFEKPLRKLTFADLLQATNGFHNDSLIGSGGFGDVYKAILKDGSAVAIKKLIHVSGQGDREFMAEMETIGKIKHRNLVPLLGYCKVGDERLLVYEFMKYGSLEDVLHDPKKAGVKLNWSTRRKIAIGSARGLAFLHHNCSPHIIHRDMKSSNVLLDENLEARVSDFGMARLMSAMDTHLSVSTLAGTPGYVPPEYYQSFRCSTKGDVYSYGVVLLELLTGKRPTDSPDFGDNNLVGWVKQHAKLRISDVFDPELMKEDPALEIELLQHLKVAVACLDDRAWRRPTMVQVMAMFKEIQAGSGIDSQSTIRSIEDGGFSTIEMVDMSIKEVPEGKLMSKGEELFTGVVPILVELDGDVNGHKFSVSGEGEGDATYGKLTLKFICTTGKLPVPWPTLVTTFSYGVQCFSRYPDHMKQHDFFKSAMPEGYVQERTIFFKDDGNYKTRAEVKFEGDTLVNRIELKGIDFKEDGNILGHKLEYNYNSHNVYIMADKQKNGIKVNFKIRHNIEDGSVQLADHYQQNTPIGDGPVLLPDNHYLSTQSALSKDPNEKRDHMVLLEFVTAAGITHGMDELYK
T3 sequence (O22476 24-1196 G644D): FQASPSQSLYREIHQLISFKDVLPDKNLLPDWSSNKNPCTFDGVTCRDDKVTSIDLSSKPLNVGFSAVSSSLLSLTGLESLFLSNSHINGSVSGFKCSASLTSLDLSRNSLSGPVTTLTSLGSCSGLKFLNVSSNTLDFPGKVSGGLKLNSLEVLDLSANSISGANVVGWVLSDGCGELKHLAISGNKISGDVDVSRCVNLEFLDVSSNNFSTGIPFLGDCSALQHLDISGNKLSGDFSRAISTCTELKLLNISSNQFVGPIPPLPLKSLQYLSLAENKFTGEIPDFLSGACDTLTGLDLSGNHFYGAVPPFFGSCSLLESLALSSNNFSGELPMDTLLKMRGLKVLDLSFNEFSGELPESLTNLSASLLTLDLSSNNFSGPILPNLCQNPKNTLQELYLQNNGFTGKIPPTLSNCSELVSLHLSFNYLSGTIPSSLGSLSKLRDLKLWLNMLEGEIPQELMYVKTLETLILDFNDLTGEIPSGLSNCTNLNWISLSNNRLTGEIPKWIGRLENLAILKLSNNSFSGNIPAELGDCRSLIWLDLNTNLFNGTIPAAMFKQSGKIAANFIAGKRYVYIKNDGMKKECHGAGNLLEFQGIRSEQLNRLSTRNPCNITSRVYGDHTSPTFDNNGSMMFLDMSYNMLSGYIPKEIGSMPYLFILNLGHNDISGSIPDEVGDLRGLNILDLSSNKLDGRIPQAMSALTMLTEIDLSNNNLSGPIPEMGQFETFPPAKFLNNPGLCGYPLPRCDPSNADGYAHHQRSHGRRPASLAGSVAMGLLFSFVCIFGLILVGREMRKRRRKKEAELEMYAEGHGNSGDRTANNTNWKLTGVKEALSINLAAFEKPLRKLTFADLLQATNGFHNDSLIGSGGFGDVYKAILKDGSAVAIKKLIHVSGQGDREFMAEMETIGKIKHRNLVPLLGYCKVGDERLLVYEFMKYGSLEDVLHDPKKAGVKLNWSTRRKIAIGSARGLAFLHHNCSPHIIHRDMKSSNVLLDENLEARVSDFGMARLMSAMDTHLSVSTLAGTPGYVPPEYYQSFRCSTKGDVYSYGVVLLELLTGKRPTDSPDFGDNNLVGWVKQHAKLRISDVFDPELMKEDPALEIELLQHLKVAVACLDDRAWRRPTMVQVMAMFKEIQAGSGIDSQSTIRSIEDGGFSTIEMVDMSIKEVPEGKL

Compound: 2,3,22,23-O-tetramethylBL [Me-BL]
- biological activity in plants (plants): lack of biological activity

Compound: CC(C)[C@H](C)[C@@H](O)[C@H](O)[C@@H](C)[C@H]1CC[C@H]2[C@@H]3CC(=O)[C@H]4C[C@H](O)[C@H](O)C[C@]4(C)[C@H]3CC[C@]12C [castasterone]
- activity in bioassays relative to BL (plants; bioassays): about 5 times less active than BL
- relative binding affinity (RBA, ratio between IC50 of a competitor and that of BL) (BIN1-GFP [1]; membrane fraction of BIN1-GFP plants): 4-5 times lower than BL
- pIC50 (BIN1-GFP [1]; read-out: 50% inhibition concentration, IC50, of [3H]-BL binding, membrane fraction of BIN1-GFP plants): 6.47

Compound: CC(C)[C@H](C)[C@@H](O)[C@H](O)[C@@H](C)[C@H]1CC[C@H]2[C@@H]3COC(=O)[C@H]4C[C@H](O)[C@H](O)C[C@]4(C)[C@H]3CC[C@]12C [BL, brassinolide]
- BL binding activity [2]: greatly reduced
- BL binding activity [3]: greatly reduced
- BL-induced BIN1 phosphorylation (BIN1 [4]): not
- Bmax (BL binding sites) (BIN1-GFP [5]): 2.66 pmole mg^−1 membrane protein
- Bmax (BL binding sites) (BIN1 [6]): 0.23 pmole mg^−1 membrane protein
- BL-induced BIN1 phosphorylation (BIN1 [7]): also observed
- time to 50% competition by unlabelled BL (reversibility of binding) (BIN1 [8]): less than 1 min
- time for specific BL binding to reach equilibrium (BIN1 [8]; incubation at 25° C.): ≤ 15 min

Compound: C[C@H]([C@H](O)CCC(C)(C)O)[C@H]1CC[C@@]2(O)C3=CC(=O)[C@@H]4C[C@@H](O)[C@@H](O)C[C@]4(C)[C@H]3CC[C@]12C [ecdysone]
- biological activity in plants (plants): lack of biological activity
- pIC50 (BIN1-GFP [1]): < 5.00
